# “Also recorded” adds a separate entry of the source.
# What was measured:
# DRG sensory neurons = assay: Ca2+ imaging in cultured DRG sensory neurons; assay type: cell-based, mouse; conditions: inhibitor 10 μM
# Procedure: Primary mouse sensory neurons were cultured following previous protocol (Chen et al. Pain 2014, 155, 2662-2672). DRGs from 2-3 weeks old male WT, Trpv1 KO, and Trpa1 KO mice were dissected and digested with 1 mg/mL collagenase (Worthington, CSL1) and 5 mg/mL dispase (Invitrogen, Waltham, MA) for 1 h, then triturated. The resulting cell suspension was filtered through a 70 μm cell strainer (BD Biosciences, Bedford, MA) to remove debris. Neurons were cultured in DH10 medium (1:1 DMEM:Hams-F12, Invitrogen, Waltham, MA) with 10% FBS (Sigma, St. Louis, MO), 100 U/mL penicillin and 100 μg/mL streptomycin (Gibco, Gaithersburg, MD) and 50 ng/mL nerve growth factor (NGF; USBiological) on coverslips coated with poly-D-lysine and laminin (Invitrogen, Waltham, MA), and incubated with 5% CO2 at 37° C. Ca^2+ imaging was performed next day after culture.
# In vitro and ex vivo Ca^2+ imaging. Routine procedures were followed for Ca^2+ imaging in cultured DRG sensory neurons, epidermal keratinocytes, and HEK cells (Chen et al. J. Biol. Chem. 2016, 291, 10252-10262; Chen et al. Pain 2014, 155, 2662-2672). […] Ratios of emissions were acquired at 0.5 Hz. ΔR/R0 was determined as the fraction of the increase of a given ratio over baseline ratio divided by baseline ratio. […]
# mice = assay: Effect of inhibitor pretreatment on LPA-, LPC- or miR-146a-induced scratching behavior; assay type: in vivo, mouse; conditions: for effect on LPC-induced itch, i.p. injection / effect on miR-146a-induced itch, i.p. injection: i.p.: SB366791 2 mg/kg, HC030031 30 mg/kg; for effect on LPC-induced itch, i.t. injection / effect on miR-146a-induced itch, i.t. injection: i.t. 30 μg
# Procedure: Behavioral assessment. Mice were shaved at the dorsal neck 1 d before experiments. […] After injections, mice were immediately placed back to the chamber, and the scratching behavior was recorded by a Panasonic video camera for 30 min. Hind limb scratching behavior directed toward the injected area at the nape of neck was observed. One scratch is defined as a lifting of the hind limb toward the injection site and then a replacing of the limb back to the floor, regardless of how many scratching strokes take place between those two movements. Behavioral analysis was conducted by observers blinded to genotype.
# Control animals received the same volume of vehicles.
# Lumbar puncture was made with a 30G-needle and drugs at 5 μL of volume were delivered. Scratching behavior assay was started approximately 2 weeks after resiniferatoxin treatment.
# DRG neurons = assay: Ex vivo Ca2+ imaging of GCaMP3-expressing DRG explants; assay type: cell-based, mouse
# Procedure: A previously established method was followed for ex vivo Ca^2+ imaging of DRG explants (Kim et al. Neuron 2014, 81, 873-887). Intact DRGs (L4 or L5) were isolated from naïve male or female Pirt-GCaMP3 mice (2-3 months old) and equilibrated in artificial cerebrospinal fluid (ACSF) bubbled with 95% O2/5% CO2 at room temperature. After 15 min, explants were placed in a dish with 2 mL of pre-oxygenated ACSF and imaged using a Zeiss 780 upright confocal microscope (Carl Zeiss AG, Oberkochen, Germany) with 20× water immersion objective and Z-stack approach at the 488 nm wavelength. Explants were stimulated by miR-146a or miR-146a scramble. After 15 min recording, capsaicin was then applied to identify whether the miR-146a responding neurons were TRPV1 positive. […] Ca^2+ fluorescence intensity was determined using the ImageJ software (NIH, Bethesda, MD, USA). For each neuron, the pixel intensity (Ft) was assessed for each frame and the pixel intensity recorded from the first 20 frames was taken to determine the average baseline value (F0). Ca^2+ signal amplitudes are presented as ΔF/F0, which is the ratio of fluorescence difference (Ft−F0) to baseline (F0).
# [1] = test system: extracellular release of miR-146a; assay: Extracellular release of miRs from cultured mouse keratinocytes (RT-qPCR); assay type: cell-based; conditions: mKC; for effect of siRNA knockdown on LPC-elicited release of miR-146a: LPC 10 μM, 10 min, siRNA 72 h, vs Scramble+LPC; for decrease of extracellular-released miR-146a: siRNA knockdown, LPC stimulation
# Procedure: Primary mouse keratinocytes were cultured following previous protocol (Chen et al. J. Biol. Chem. 2016, 291, 10252-10262). The epidermis from the back skin of newborn WT or keratinocyte-Trpv4 cKO mice was separated from the dermis by floating the skin on 0.25% trypsin (Gibco, Gaithersburg, MD) for 14-18 h at 4° C. Basal keratinocytes were separated from the cornified sheets by filtration through a […] cell strainer. Keratinocytes were plated on collagen I-coated dishes or glass coverslips and grown in EME media (Gibco, Gaithersburg, MD) containing 8% chelex (Bio-rad, Hercules, CA)-treated FBS with the final Ca^2+ adjusted to 0.05 mM, bovine pituitary extract (50 μg/mL), epidermal growth factor (5 ng/mL), and lx antibiotics/antimycotics (Gibco, Gaithersburg, MD) in a humidified incubator with 5% CO2 at 37° C. for 5-7 days until use. To knockdown Trpv4 in isolated keratinocytes from newborn keratinocyte-Trpv4 cKO mice, cells were treated with 4-OH tamoxifen at 500 nM for 72 h.
# Measurement of released vesicles and extracellular miR-146a from cultured keratinocytes or sera Medium for the cultured keratinocytes was replaced with serum-free medium 2 h before LPC stimulation. […] Finally, cell-free supernatants were further purified using a Vesicular Isolation kit (Invitrogen, Waltham, MA) according to the manufacturer's instructions, with final product resuspended in ice-cold PBS. Total RNA extraction was then carried out using a Total RNA Isolation kit (Invitrogen, Waltham, MA). Enrichment for small RNAs was carried out by sequential increase in ethanol concentration and passing through glass-fiber filters. RNase free water was used to elute small RNAs in the final elution step. For human PBC sera or sera from ANIT-treated mice, RNA was isolated using Qiagen miRNeasy Plasma/Serum kit. cDNA synthesis from extracted RNAs was performed according to manufacturer's instructions (qSTAR miRNA kit, Origene). For qPCR, the stem-loop oligonucleotides specific for the following miRs are as follows: miR-146a-5p (GAGAACTGAATTCCATGGG, SEQ ID NO: 4), miR-let-7b (GAGGTAGTAGGTTGTGTGG, SEQ ID NO: 5), miR-125b-1 (CCCT GAGACCCTAACTTG, SEQ ID NO: 6), miR-203 (GTGGTTC TTGACAGTTCAAC, SEQ ID NO: 7), and miR-16-5p (AGCAGCAC GTAAATATTGGC, SEQ ID NO: 8). Primers were purchased from Integrated DNA Technologies company (Coralville, IA). qPCR reactions for each sample were run in triplicates, including no-template controls. MiR-16-5p was selected as a control due to the relative constancy of its expression in various cultured cell lines (Schwarzenbach et al. Clin. Chem. 2015, 61, 1333-1342). qPCR for this miR was performed in tandem with target miRs to determine the optimal normalization procedure. To investigate the effects of the specific TRPV4 inhibitors GSK205 or HC067047 and the specific MEK inhibitor U0126 on LPC-induced extracellular release of miR-146a, cells were incubated with the inhibitors for 15 min before stimulation. Control cells received the same volume of vehicle.
# Vesicular release from cultured keratinocytes was quantified by detecting acetylcholinesterase (AChE) activity in the extracellular release fluid. (Gupta et al. Am. J. Physiol. Heart Circ. Physiol. 2007, 292, H3052-3056; Malik et al. Methods Mol. Biol. 2016, 1448, 237-248). CBQCA Protein Quantitation Kit (Molecular Probes, Eugene, OR) was used to assess the total protein amounts of each sample. Quantitation was carried out according to kit instructions (Fluorocet, Systems Biosciences, Palo Alto, CA). Briefly, vesicles were lysed to release esterase enzyme whose activity is measured using a florescence dye, excitation at 544 nm and emission at 590 nm. Fluostar Optima (BMG Labtech, Cary, NC) microplate reader was used to measure esterase activity. 500 ng protein equivalent of input was used per well. […]
# [2] = test system: vesicular release from mKC; assay: Vesicular release from cultured mouse keratinocytes (AChE activity); assay type: cell-based; conditions: vs Scramble+LPC
# Procedure: Vesicular release from cultured keratinocytes was quantified by detecting acetylcholinesterase (AChE) activity in the extracellular release fluid. (Gupta et al. Am. J. Physiol. Heart Circ. Physiol. 2007, 292, H3052-3056; Malik et al. Methods Mol. Biol. 2016, 1448, 237-248). CBQCA Protein Quantitation Kit (Molecular Probes, Eugene, OR) was used to assess the total protein amounts of each sample. Quantitation was carried out according to kit instructions (Fluorocet, Systems Biosciences, Palo Alto, CA). Briefly, vesicles were lysed to release esterase enzyme whose activity is measured using a florescence dye, excitation at 544 nm and emission at 590 nm. Fluostar Optima (BMG Labtech, Cary, NC) microplate reader was used to measure esterase activity. 500 ng protein equivalent of input was used per well. To determine the contribution of Rab5a and Rab27a to LPC-induced miR-146a release, cells were pre-treated with the Rab5a (5′-GUAGAAUCAA GUUUCUAAUUCUGAA-3′ SEQ ID NO: 9, 5′-[…]-3′ SEQ ID NO: 10) or Rab27a (5′-AGCUAAAA CUGAGAGCUUCAAACAG-3′ SEQ ID NO: 11, 5′-[…]-3′ SEQ ID NO: 12) siRNA (IDT, Coralville, IA) for 72 h before stimulation. Control cells were treated with scramble siRNA.
Compound,effect on miR-146a (300 nM) induced Ca2+ influx (DRG sensory neurons),"effect on LPC-induced itch, i.p. injection (mice)","effect on miR-146a-induced itch, i.p. injection (mice)","effect on LPC-induced itch, i.t. injection (mice)","effect on miR-146a-induced itch, i.t. injection (mice)",effect on percentage of total DRG neurons responding to miR-146a (300 nM) (DRG neurons; inhibitor 10 μM),"Ca2+ signal in sensory neurons following stimulation (DRG neurons; miR-146a 300 nM, capsaicin 1 μM)",effect of siRNA knockdown on LPC-elicited release of miR-146a [1],decrease of extracellular-released miR-146a [1] [%],effect of siRNA on LPC-elicited vesicular release [2]
CC(C)c1ccc(NC(=O)Cn2cnc3c2c(=O)n(C)c(=O)n3C)cc1 [HC030031],not significantly altered,not significantly altered,not significantly altered,not significantly altered,not significantly altered,,,,,
COc1cccc(NC(=O)/C=C/c2ccc(Cl)cc2)c1 [SB366791],significantly reduced,significantly reduced; also recorded: significantly attenuated,significantly reduced; also recorded: significantly attenuated,significantly reduced; also recorded: significantly attenuated,significantly reduced; also recorded: significantly attenuated,significantly reduced,,,,
COc1cc(CNC(=O)CCCC/C=C/C(C)C)ccc1O [capsaicin],,,,,,,increased,,,
"Rab5a siRNA: siRNA against Rab5a, SEQ ID NO: 9 and 10 (chain 1 GUAGAAUCAAGUUUCUAAUUCUGAA; chain 2 UUCAGAAUUAGAAACUUGAUUCUACCA; listed as RNA, chemistry not given here)",,,,,,,,significant decrease,~40,completely eliminated; also recorded: significant decrease
"Rab27a siRNA: siRNA against Rab27a, SEQ ID NO: 11 and 12 (chain 1 AGCUAAAACUGAGAGCUUCAAACAG; chain 2 CUGUUUGAAGCUCUCAGUUUUAGCUUA; listed as RNA, chemistry not given here)",,,,,,,,significant decrease,~40,completely eliminated; also recorded: significant decrease

# Source: US20240002846A1, “COMPOSITIONS AND METHODS FOR THE DIAGNOSIS AND TREATMENT OF ITCH” (Duke University, priority 2020, published 2024)
